Results: ChEMBL document CHEMBL5625247, “Tetrahydro-β-carboline derivatives as potent histone deacetylase 6 inhibitors with broad-spectrum antiproliferative activity” (Eur J Med Chem, 2023)
Calls of active or inactive are those of the source. The calls are words filed in the database; no cut-off is given here.

How the values were obtained:
[1] = target: Histone deacetylase 3 (Homo sapiens, UniProt O15379); assay: Inhibition of HDAC3 (unknown origin) expressed in baculovirus infected in Sf9 cells using RHKKAc as substrate preincubated for 5 to 10 mins followed by substrate addition measured after 2 hrs by fluorescence based assay
Sequence of Histone deacetylase 3 (O15379 whole entry): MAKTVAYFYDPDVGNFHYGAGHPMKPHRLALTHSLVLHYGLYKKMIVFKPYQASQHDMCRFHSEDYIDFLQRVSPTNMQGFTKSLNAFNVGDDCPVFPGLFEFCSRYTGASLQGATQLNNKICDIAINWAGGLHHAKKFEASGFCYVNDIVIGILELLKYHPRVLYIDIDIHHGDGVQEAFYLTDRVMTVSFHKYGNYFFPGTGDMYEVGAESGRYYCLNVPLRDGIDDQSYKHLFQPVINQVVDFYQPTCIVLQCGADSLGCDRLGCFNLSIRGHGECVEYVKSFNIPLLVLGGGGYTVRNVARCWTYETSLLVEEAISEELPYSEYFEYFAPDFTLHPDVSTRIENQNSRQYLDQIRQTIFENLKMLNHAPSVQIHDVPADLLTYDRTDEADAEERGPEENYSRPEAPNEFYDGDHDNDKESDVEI

[2] = target: Histone deacetylase 5 (Homo sapiens, UniProt Q9UQL6); assay: Inhibition of HDAC5 (unknown origin) expressed in baculovirus infected in Sf9 cells using RHKKAc as substrate preincubated for 5 to 10 mins followed by substrate addition measured after 2 hrs by fluorescence based assay
Sequence of Histone deacetylase 5 (Q9UQL6 whole entry): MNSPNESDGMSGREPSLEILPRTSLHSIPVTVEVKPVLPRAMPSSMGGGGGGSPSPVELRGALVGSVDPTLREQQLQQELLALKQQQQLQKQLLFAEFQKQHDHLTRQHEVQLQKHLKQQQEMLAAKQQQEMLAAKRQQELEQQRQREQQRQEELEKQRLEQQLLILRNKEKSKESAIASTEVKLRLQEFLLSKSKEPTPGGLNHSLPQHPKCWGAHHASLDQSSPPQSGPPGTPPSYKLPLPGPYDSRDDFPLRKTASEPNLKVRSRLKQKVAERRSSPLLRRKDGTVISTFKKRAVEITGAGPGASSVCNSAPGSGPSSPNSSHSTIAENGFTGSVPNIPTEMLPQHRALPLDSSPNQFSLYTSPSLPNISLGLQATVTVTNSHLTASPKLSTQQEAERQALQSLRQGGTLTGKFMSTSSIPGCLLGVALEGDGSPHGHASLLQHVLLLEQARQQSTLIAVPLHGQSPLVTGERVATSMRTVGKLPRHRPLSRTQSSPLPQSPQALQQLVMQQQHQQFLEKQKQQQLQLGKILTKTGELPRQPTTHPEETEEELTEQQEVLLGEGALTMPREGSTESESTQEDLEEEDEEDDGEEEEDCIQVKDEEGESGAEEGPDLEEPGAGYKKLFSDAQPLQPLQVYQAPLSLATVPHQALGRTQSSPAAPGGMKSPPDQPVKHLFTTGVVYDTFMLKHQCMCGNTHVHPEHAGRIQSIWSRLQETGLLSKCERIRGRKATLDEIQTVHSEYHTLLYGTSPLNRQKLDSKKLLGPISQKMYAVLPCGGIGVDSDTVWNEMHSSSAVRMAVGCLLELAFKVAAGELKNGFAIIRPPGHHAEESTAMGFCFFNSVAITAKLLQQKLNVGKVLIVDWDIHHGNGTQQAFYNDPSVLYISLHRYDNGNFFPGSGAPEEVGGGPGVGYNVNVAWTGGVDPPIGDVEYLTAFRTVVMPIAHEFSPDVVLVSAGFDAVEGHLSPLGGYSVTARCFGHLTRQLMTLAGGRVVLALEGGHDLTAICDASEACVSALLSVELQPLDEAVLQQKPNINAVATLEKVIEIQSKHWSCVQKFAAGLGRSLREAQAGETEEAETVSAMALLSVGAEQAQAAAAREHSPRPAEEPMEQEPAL

[3] = Volume of distribution at steady state in Sprague-Dawley rat at 0.2 mg/kg, iv by LC-MS/MS analysis; type: ADME, organism-based; details: in vivo, read-out: Vdss
[4] = target: Histone deacetylase 8 (Homo sapiens, UniProt Q9BY41); assay: Inhibition of HDAC8 (unknown origin) expressed in baculovirus infected in Sf9 cells using RHKKAc as substrate preincubated for 5 to 10 mins followed by substrate addition measured after 2 hrs by fluorescence based assay
Sequence of Histone deacetylase 8 (Q9BY41 whole entry): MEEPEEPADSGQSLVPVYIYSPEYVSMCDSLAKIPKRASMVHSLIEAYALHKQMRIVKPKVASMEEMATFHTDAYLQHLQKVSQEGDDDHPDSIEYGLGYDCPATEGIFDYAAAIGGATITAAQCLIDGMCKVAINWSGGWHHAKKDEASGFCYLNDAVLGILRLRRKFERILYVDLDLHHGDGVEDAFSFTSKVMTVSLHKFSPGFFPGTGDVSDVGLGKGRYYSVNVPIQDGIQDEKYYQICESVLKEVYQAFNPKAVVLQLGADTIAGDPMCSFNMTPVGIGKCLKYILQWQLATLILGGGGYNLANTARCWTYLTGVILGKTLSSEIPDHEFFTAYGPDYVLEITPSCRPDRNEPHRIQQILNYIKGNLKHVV

[5] = target: Class 1 histone deacetylase (Homo sapiens) (UniProt Q13547+O15379+Q92769+Q9BY41); assay: Inhibition of class 1 HDAC in human RPMI-8226 cells assessed as increase in alpha-tubulin acetylation at 1 to 10 uM incubated for 24 hrs by Western blot analysis; type: cell-based; details: dose 1-10 µM
Sequence of Class 1 histone deacetylase (Homo sapiens) (O15379 whole entry, looked up): as the sequence (O15379 whole entry) above
Sequence of Class 1 histone deacetylase (Homo sapiens) (Q13547 whole entry, looked up): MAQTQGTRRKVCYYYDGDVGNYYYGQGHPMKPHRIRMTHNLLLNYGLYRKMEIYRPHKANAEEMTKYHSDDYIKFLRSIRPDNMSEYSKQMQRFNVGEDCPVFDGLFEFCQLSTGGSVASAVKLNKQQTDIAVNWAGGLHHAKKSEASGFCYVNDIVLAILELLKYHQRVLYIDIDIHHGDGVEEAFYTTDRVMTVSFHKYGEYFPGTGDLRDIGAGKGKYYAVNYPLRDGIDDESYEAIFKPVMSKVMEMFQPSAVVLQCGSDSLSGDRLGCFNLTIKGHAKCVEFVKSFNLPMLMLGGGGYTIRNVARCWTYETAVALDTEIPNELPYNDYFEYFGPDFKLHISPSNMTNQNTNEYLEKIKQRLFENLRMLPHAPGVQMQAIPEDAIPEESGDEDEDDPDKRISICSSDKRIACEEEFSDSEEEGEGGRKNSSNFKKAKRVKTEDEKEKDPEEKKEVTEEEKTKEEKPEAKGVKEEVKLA
Sequence of Class 1 histone deacetylase (Homo sapiens) (Q92769 whole entry, looked up): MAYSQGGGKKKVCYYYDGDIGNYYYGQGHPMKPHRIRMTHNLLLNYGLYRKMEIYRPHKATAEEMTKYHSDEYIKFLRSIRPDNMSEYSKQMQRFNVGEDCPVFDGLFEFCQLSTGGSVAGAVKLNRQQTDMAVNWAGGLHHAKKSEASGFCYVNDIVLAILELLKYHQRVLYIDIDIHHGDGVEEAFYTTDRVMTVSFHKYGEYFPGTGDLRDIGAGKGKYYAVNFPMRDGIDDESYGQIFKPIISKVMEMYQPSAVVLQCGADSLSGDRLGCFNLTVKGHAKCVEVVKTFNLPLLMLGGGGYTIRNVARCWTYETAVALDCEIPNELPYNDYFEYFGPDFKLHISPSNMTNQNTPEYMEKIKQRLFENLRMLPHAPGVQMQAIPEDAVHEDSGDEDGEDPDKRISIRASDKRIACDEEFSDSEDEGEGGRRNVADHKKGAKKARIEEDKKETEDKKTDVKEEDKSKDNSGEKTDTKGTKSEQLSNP
Sequence of Class 1 histone deacetylase (Homo sapiens) (Q9BY41 whole entry, looked up): as the sequence (Q9BY41 whole entry) above

[6] = target: Histone deacetylase 2 (Homo sapiens, UniProt Q92769); type: cell-based, Sf9
Sequence of Histone deacetylase 2 (Q92769 whole entry): as the sequence (Q92769 whole entry, looked up) above

[7] = AUC (0 to infinity) in Sprague-Dawley rat at 0.2 mg/kg, iv by LC-MS/MS analysis; type: ADME, organism-based; details: in vivo
[8] = AUC (0 to infinity) in Sprague-Dawley rat at 3 mg/kg, po by LC-MS/MS analysis; type: ADME, organism-based; details: in vivo
[9] = target: T1, Protein deacetylase HDAC6 (Homo sapiens) (UniProt Q9UBN7); assay: Inhibition of HDAC6 in human RPMI-8226 cells assessed as increase in histone H3 acetylation at 1 to 10 uM incubated for 24 hrs by Western blot analysis; type: cell-based; details: dose 1-10 µM
T1 sequence (whole entry): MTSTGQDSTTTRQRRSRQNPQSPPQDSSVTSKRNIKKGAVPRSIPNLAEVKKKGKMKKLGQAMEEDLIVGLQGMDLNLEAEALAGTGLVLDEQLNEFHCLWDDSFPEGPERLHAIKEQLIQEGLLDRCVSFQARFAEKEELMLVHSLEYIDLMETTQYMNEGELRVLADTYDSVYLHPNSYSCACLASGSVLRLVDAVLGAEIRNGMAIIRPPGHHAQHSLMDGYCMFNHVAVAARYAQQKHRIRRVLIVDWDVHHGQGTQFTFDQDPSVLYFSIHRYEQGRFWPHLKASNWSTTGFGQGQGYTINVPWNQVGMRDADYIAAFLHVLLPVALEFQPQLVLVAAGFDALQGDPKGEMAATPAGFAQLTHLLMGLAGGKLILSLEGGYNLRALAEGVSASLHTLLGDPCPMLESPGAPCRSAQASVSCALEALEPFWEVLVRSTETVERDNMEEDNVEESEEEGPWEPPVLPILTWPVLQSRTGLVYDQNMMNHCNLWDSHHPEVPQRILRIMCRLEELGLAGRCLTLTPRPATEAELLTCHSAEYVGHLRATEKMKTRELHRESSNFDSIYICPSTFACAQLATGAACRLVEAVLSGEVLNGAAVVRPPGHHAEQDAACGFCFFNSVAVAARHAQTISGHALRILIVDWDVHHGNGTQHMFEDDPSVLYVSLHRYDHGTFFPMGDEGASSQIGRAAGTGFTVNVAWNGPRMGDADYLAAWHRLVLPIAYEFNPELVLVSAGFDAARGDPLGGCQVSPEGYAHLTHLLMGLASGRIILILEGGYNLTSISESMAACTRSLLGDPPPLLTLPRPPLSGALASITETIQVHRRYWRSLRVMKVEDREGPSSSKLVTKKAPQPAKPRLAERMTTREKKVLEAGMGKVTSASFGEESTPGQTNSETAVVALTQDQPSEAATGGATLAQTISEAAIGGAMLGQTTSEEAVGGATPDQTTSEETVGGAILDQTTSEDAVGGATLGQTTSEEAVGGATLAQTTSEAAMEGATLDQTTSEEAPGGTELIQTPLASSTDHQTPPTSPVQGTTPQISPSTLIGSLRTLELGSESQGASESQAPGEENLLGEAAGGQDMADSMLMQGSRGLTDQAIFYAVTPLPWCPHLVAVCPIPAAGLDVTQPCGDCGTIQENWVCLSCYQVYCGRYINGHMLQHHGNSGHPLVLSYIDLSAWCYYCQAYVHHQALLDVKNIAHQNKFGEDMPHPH

[10] = target: Histone deacetylase 11 (Homo sapiens, UniProt Q96DB2); assay: Inhibition of HDAC11 (unknown origin) expressed in baculovirus infected in Sf9 cells using RHKKAc as substrate preincubated for 5 to 10 mins followed by substrate addition measured after 2 hrs by fluorescence based assay
Sequence of Histone deacetylase 11 (Q96DB2 whole entry): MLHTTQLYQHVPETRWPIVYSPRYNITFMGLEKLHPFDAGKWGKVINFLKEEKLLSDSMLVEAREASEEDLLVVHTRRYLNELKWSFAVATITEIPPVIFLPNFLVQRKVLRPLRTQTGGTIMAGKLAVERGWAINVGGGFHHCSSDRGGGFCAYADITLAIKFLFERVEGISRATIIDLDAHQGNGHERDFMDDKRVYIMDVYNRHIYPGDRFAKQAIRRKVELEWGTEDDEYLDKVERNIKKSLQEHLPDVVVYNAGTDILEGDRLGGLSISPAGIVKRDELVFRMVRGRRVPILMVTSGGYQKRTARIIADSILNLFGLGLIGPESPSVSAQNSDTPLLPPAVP

[11] = Tmax in Sprague-Dawley rat at 3 mg/kg, po by LC-MS/MS analysis; type: ADME, organism-based; details: in vivo
[12] = Half life in Sprague-Dawley rat at 0.2 mg/kg, iv by LC-MS/MS analysis; type: ADME, organism-based; details: in vivo
[13] = Half life in Sprague-Dawley rat at 3 mg/kg, po by LC-MS/MS analysis; type: ADME, organism-based; details: in vivo
[14] = target: Histone deacetylase 4 (Homo sapiens, UniProt P56524); assay: Inhibition of HDAC4 (unknown origin) expressed in baculovirus infected in Sf9 cells using RHKKAc as substrate preincubated for 5 to 10 mins followed by substrate addition measured after 2 hrs by fluorescence based assay
Sequence of Histone deacetylase 4 (P56524 whole entry): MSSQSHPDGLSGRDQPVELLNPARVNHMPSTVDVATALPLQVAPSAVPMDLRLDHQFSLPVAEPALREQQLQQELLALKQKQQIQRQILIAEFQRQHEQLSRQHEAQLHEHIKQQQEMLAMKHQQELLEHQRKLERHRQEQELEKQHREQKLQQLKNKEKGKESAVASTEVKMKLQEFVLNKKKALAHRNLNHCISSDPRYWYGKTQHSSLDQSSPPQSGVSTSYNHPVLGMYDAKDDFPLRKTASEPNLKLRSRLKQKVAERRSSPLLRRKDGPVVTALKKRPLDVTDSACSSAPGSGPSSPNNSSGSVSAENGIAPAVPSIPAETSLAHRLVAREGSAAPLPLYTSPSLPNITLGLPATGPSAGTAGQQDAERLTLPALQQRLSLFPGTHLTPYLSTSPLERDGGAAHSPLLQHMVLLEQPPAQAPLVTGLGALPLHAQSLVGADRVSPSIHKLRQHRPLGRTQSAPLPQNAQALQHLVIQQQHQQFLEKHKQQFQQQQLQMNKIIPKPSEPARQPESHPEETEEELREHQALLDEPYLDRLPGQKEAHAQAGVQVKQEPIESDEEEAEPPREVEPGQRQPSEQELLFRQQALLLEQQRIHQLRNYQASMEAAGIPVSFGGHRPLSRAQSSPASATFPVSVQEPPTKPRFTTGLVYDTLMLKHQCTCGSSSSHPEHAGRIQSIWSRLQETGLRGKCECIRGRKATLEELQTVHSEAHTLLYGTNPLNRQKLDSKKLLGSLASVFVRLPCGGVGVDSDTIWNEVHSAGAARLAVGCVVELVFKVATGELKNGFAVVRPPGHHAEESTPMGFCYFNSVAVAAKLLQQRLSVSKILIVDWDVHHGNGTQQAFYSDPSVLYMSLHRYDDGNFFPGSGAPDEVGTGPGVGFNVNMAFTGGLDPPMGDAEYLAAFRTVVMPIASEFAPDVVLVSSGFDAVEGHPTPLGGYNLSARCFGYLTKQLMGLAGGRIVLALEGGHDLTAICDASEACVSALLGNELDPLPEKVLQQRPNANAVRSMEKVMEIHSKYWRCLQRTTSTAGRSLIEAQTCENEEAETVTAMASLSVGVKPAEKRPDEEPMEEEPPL

[15] = target: T1, Protein deacetylase HDAC6 (Homo sapiens); assay: Inhibition of HDAC6 in human RPMI-8226 cells assessed as increase in alpha-tubulin acetylation at 1 to 10 uM incubated for 24 hrs by Western blot analysis; type: cell-based; details: dose 1-10 µM

With `O=C(NO)c1ccc(CNC(=O)[C@H]2Cc3c([nH]c4ccccc34)[C@H](c3ccc(Cl)cc3)N2)cc1` as the molecule, how does the IC50 [1] read?
Its IC50 is 103 nM.

What about the IC50 [2] of the same molecule?
Its IC50 is greater than 50 µM.

What about the Vd [3] of the same molecule?
Its Vd is 0.81 L/kg.

What about the IC50 [4] of the same molecule?
The IC50 was 292 nM.

And the inhibition [5]?
The inhibition was “Active”.

And the IC50 [6]?
Its IC50 is 98.7 nM.

And the AUC(0-inf) [7]?
Its AUC(0-inf) is 1.52 µM·h.

And the AUC(0-inf) [8]?
Its AUC(0-inf) is 9.71 µM·h.

What about the inhibition [9] of the same molecule?
The inhibition was “Active”.

And the IC50 [10]?
The IC50 was 2100 nM.

What about the Tmax [11] of the same molecule?
The Tmax was 1.54 h.

What about the half-life [12] of the same molecule?
The half-life was 203 min.

What about the half-life [13] of the same molecule?
Its half-life is 205 min.

And the IC50 [14]?
The IC50 was greater than 50 µM.

What about the inhibition [15] of the same molecule?
The inhibition was “Active”.
